Reference: PubChem BioAssay (NCI)
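The compound was tested at five concentrations on cells cultured in 96-well plates, with a 48-hour exposure period. GI50 is the concentration that inhibits growth by half. TGI: concentration producing complete growth inhibition.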

Assays:
Experiment in all cases: inhibition of tumour cell growth, NCI panel, 48 h
RXF 393 renal = test system: RXF 393 renal
UACC-62 melanoma = test system: UACC-62 melanoma
TK-10 renal = test system: TK-10 renal
SNB-19 CNS = test system: SNB-19 CNS
MDA-MB-468 breast = test system: MDA-MB-468 breast
EKVX NSCLC = test system: EKVX NSCLC
CAKI-1 renal = test system: CAKI-1 renal
LOX IMVI melanoma = test system: LOX IMVI melanoma
IGROV1 ovarian = test system: IGROV1 ovarian
A498 renal = test system: A498 renal
MALME-3M melanoma = test system: MALME-3M melanoma
DU-145 prostate = test system: DU-145 prostate
UACC-257 melanoma = test system: UACC-257 melanoma
BT-549 breast = test system: BT-549 breast
786-0 renal = test system: 786-0 renal
HCC-2998 colon = test system: HCC-2998 colon
OVCAR-8 ovarian = test system: OVCAR-8 ovarian
OVCAR-5 ovarian = test system: OVCAR-5 ovarian
CCRF-CEM leukemia = test system: CCRF-CEM leukemia
HCT-116 colon = test system: HCT-116 colon
U251 CNS = test system: U251 CNS
NCI/ADR-RES ovarian = test system: NCI/ADR-RES ovarian
M14 melanoma = test system: M14 melanoma
SN12C renal = test system: SN12C renal
MOLT-4 leukemia = test system: MOLT-4 leukemia
SF-268 CNS = test system: SF-268 CNS
A549 NSCLC = test system: A549 NSCLC
MDA-MB-435 = test system: MDA-MB-435
SK-MEL-5 melanoma = test system: SK-MEL-5 melanoma
HOP-92 NSCLC = test system: HOP-92 NSCLC
PC-3 prostate = test system: PC-3 prostate
T-47D breast = test system: T-47D breast
ACHN renal = test system: ACHN renal
MDA-MB-231 breast = test system: MDA-MB-231 breast
SR leukemia = test system: SR leukemia
HOP-62 NSCLC = test system: HOP-62 NSCLC
SK-MEL-2 melanoma = test system: SK-MEL-2 melanoma
SNB-75 CNS = test system: SNB-75 CNS
SK-OV-3 ovarian = test system: SK-OV-3 ovarian
K-562 leukemia = test system: K-562 leukemia
HS 578T breast = test system: HS 578T breast
COLO 205 colon = test system: COLO 205 colon
NCI-H23 lung = test system: NCI-H23 lung
KM12 colon = test system: KM12 colon
SW-620 colon = test system: SW-620 colon
SF-539 CNS = test system: SF-539 CNS
SK-MEL-28 melanoma = test system: SK-MEL-28 melanoma
MCF7 breast = test system: MCF7 breast
NCI-H226 lung = test system: NCI-H226 lung
HCT-15 colon = test system: HCT-15 colon
UO-31 renal = test system: UO-31 renal
HL-60(TB) leukemia = test system: HL-60(TB) leukemia
HT29 colon = test system: HT29 colon
OVCAR-3 ovarian = test system: OVCAR-3 ovarian
RPMI-8226 leukemia = test system: RPMI-8226 leukemia
OVCAR-4 ovarian = test system: OVCAR-4 ovarian
SF-295 CNS = test system: SF-295 CNS
NCI-H522 lung = test system: NCI-H522 lung
NCI-H460 lung = test system: NCI-H460 lung

Molecule `COc1ccc(-c2cc(C(=O)N=Nc3c(O)[nH]c4ccccc34)c3ccccc3n2)cc1` has a GI50 (RXF 393 renal) of 4.16 µM, a TGI (RXF 393 renal) of 15.4 µM and a GI50 (UACC-62 melanoma) of 9.93 µM. For the same molecule, the TGI (UACC-62 melanoma) was 21.8 µM, the GI50 (TK-10 renal) was 17.9 µM and the TGI (TK-10 renal) was 32.9 µM. The GI50 (SNB-19 CNS) was 11 µM, the TGI (SNB-19 CNS) was 23 µM and the GI50 (MDA-MB-468 breast) was 4.94 µM. It also gave a TGI (MDA-MB-468 breast) of 17.3 µM, a TGI (EKVX NSCLC) of 22.5 µM and a GI50 (CAKI-1 renal) of 2.56 µM. It also gave a TGI (CAKI-1 renal) of 11 µM, a GI50 (LOX IMVI melanoma) of 6.17 µM and a TGI (LOX IMVI melanoma) of 19.3 µM. The GI50 (IGROV1 ovarian) was 5.07 µM, the TGI (IGROV1 ovarian) was 18.3 µM and the GI50 (A498 renal) was 21.4 µM. For the same molecule, the TGI (A498 renal) was 38.6 µM, the GI50 (MALME-3M melanoma) was 3.14 µM and the TGI (MALME-3M melanoma) was 9.99 µM. The GI50 (DU-145 prostate) was 3.27 µM, the TGI (DU-145 prostate) was 12.1 µM and the GI50 (UACC-257 melanoma) was 9.71 µM. It also gave a TGI (UACC-257 melanoma) of 24.1 µM, a GI50 (BT-549 breast) of 14.5 µM and a TGI (BT-549 breast) of 29 µM. For the same molecule, the GI50 (786-0 renal) was 6.88 µM, the TGI (786-0 renal) was 20.8 µM and the GI50 (HCC-2998 colon) was 3.87 µM. The TGI (HCC-2998 colon) was 13.1 µM, the GI50 (OVCAR-8 ovarian) was 3.13 µM and the TGI (OVCAR-8 ovarian) was 12.4 µM. It also gave a GI50 (OVCAR-5 ovarian) of 5.75 µM, a TGI (OVCAR-5 ovarian) of 18.6 µM and a GI50 (CCRF-CEM leukemia) of 9.06 µM. It also gave a TGI (CCRF-CEM leukemia) of over 100 µM, a GI50 (HCT-116 colon) of 3.18 µM and a TGI (HCT-116 colon) of 10.7 µM. The GI50 (U251 CNS) was 2.34 µM, the TGI (U251 CNS) was 6.37 µM and the GI50 (NCI/ADR-RES ovarian) was 3.48 µM. For the same molecule, the TGI (NCI/ADR-RES ovarian) was 15 µM, the GI50 (M14 melanoma) was 4.3 µM and the TGI (M14 melanoma) was 17.4 µM. It also gave a GI50 (SN12C renal) of 11.3 µM, a TGI (SN12C renal) of 24.4 µM and a GI50 (MOLT-4 leukemia) of 4.93 µM. For the same molecule, the TGI (MOLT-4 leukemia) was over 100 µM, the GI50 (SF-268 CNS) was 4.43 µM and the TGI (SF-268 CNS) was 20.8 µM. For the same molecule, the GI50 (A549 NSCLC) was 2.08 µM, the TGI (A549 NSCLC) was 4.78 µM and the GI50 (MDA-MB-435) was 3.04 µM. The TGI (MDA-MB-435) was 12.1 µM, the GI50 (SK-MEL-5 melanoma) was 12.1 µM and the TGI (SK-MEL-5 melanoma) was 25 µM. For the same molecule, the GI50 (HOP-92 NSCLC) was 3.26 µM, the TGI (HOP-92 NSCLC) was 16.7 µM and the GI50 (PC-3 prostate) was 5.2 µM. For the same molecule, the TGI (PC-3 prostate) was 27.4 µM, the GI50 (T-47D breast) was 8.61 µM and the TGI (T-47D breast) was 27.2 µM. For the same molecule, the GI50 (ACHN renal) was 11 µM, the TGI (ACHN renal) was 22.9 µM and the GI50 (MDA-MB-231 breast) was 2.8 µM. It also gave a TGI (MDA-MB-231 breast) of 10.2 µM, a GI50 (SR leukemia) of 4.05 µM and a TGI (SR leukemia) of over 100 µM. It also gave a GI50 (HOP-62 NSCLC) of 4.19 µM, a TGI (HOP-62 NSCLC) of 17.8 µM and a GI50 (SK-MEL-2 melanoma) of 16 µM. It also gave a TGI (SK-MEL-2 melanoma) of 35.2 µM, a GI50 (SNB-75 CNS) of 1.94 µM and a TGI (SNB-75 CNS) of 15.1 µM. The GI50 (SK-OV-3 ovarian) was 11.6 µM, the TGI (SK-OV-3 ovarian) was 24.8 µM and the GI50 (K-562 leukemia) was 4.53 µM. The TGI (K-562 leukemia) was over 100 µM, the GI50 (HS 578T breast) was 14 µM and the TGI (HS 578T breast) was 65.7 µM. It also gave a GI50 (COLO 205 colon) of 11.6 µM, a TGI (COLO 205 colon) of 26.6 µM and a GI50 (NCI-H23 lung) of 2.91 µM. It also gave a TGI (NCI-H23 lung) of 11.4 µM, a GI50 (KM12 colon) of 11.1 µM and a TGI (KM12 colon) of 28.3 µM. For the same molecule, the GI50 (SW-620 colon) was 3.91 µM, the TGI (SW-620 colon) was 17.5 µM and the GI50 (SF-539 CNS) was 3.2 µM. It also gave a TGI (SF-539 CNS) of 10.2 µM, a GI50 (SK-MEL-28 melanoma) of 4.26 µM and a TGI (SK-MEL-28 melanoma) of 14.7 µM. It also gave a GI50 (MCF7 breast) of 10.7 µM, a TGI (MCF7 breast) of 26.3 µM and a GI50 (NCI-H226 lung) of 4.1 µM. For the same molecule, the TGI (NCI-H226 lung) was 19.4 µM, the GI50 (HCT-15 colon) was 10.3 µM and the TGI (HCT-15 colon) was 24.7 µM. For the same molecule, the GI50 (UO-31 renal) was 6 µM, the TGI (UO-31 renal) was 20.1 µM and the GI50 (HL-60(TB) leukemia) was 13.1 µM. For the same molecule, the TGI (HL-60(TB) leukemia) was over 100 µM, the GI50 (HT29 colon) was 3.59 µM and the TGI (HT29 colon) was 12.8 µM. For the same molecule, the GI50 (OVCAR-3 ovarian) was 3.63 µM, the TGI (OVCAR-3 ovarian) was 14.4 µM and the GI50 (RPMI-8226 leukemia) was 9.32 µM. The TGI (RPMI-8226 leukemia) was over 100 µM, the GI50 (OVCAR-4 ovarian) was 5.24 µM and the TGI (OVCAR-4 ovarian) was 20.9 µM. For the same molecule, the GI50 (SF-295 CNS) was 11.2 µM, the TGI (SF-295 CNS) was 24 µM and the GI50 (NCI-H522 lung) was 1.88 µM. It also gave a TGI (NCI-H522 lung) of 4.71 µM, a GI50 (NCI-H460 lung) of 3.32 µM and a TGI (NCI-H460 lung) of 11.4 µM.
